Measurements published in patent US11331289B2, “Antimicrobial composition” (priority 2017, dated 2022).
Converted amounts (≈) assume the structure as drawn.

System: Malassezia pachydermatis
Experiment: MIC, microdilution broth method
Assay type: cell-based
Procedure: Six clinical isolates from dog skin (n=5) and cats (n=1) which had been sent to EnvA (mycology laboratory of BioPôle Alfort) for mycological culture. The isolates, collected in March 2016, were identified as belonging to the species Malassezia pachydermatis. They were maintained by regular transplanting on medium of Sabouraud. Isolates are subcultured 2 to 3 days prior to testing sensitivity.
A stock solution of Oxyclozanide at 1600 μg/mL is prepared in DMSO. The stock solution is then diluted in DMSO to obtain a concentration range of 3.125 μg/ml to 800 μg/ml. A 1/50 dilution of this range and of the stock solution is then carried out in ultrapure water so as to obtain a concentration range of 0.0625 μg/ml to 32 μg/ml and containing 2% of DMSO. 50 μl of these solutions are deposited in wells of a microplate and then 50 μl of inoculum calibrated at 10^6 CFU/ml in Sabouraud/Tween 40 (2%) are added. A range of tested concentrations ranges from 0.0312 μg/mL to 16 μg/mL. The final concentration of DMSO in contact with the inoculum is 1%. The same dilution and seeding protocol was followed with a stock solution of amphotericin B at 1600 μg/ml. A “placebo” (or yeast growth control) column is systematically included in the plates. The plates are incubated at 37 ° C. The reading is done at 24 and 48 h. Several trials were conducted and protocol adjustments were required. In particular, the concentration of the inoculum had to be reduced for antifungal activity to be observed.

- MIC (Isolate 1, Assay 1, 10^6 CFU/ml): 2 µg/mL (≈ 2.16 µM)
- MIC (Isolate 1, Assay 2, 10^6 CFU/ml): 4 µg/mL (≈ 4.33 µM)
- MIC (Isolate 2, Assay 1, 10^6 CFU/ml): 2 µg/mL (≈ 2.16 µM)
- MIC (Isolate 2, Assay 2, 10^6 CFU/ml): 2 µg/mL (≈ 2.16 µM)
- MIC (Isolate 3, Assay 1, 10^6 CFU/ml): 4 µg/mL (≈ 4.33 µM)
- MIC (Isolate 3, Assay 2, 10^6 CFU/ml): 8 µg/mL (≈ 8.66 µM)
- MIC (Isolate 4, Assay 1, 10^6 CFU/ml): 4 µg/mL (≈ 4.33 µM)
- MIC (Isolate 4, Assay 2, 10^6 CFU/ml): 4 µg/mL (≈ 4.33 µM)
- MIC (Isolate 5, Assay 1, 10^6 CFU/ml): 4 µg/mL (≈ 4.33 µM)
- MIC (Isolate 5, Assay 2, 10^6 CFU/ml): 4 µg/mL (≈ 4.33 µM)
- MIC (Isolate 6, Assay 1, 10^6 CFU/ml): 4 µg/mL (≈ 4.33 µM)
- MIC (Isolate 6, Assay 2, 10^6 CFU/ml): 8 µg/mL (≈ 8.66 µM)
SMILES: C[C@@H]1[C@H](O)[C@@H](C)/C=C/C=C/C=C/C=C/C=C/C=C/C=C/[C@H](O[C@@H]2O[C@H](C)[C@@H](O)[C@H](N)[C@@H]2O)C[C@@H]2O[C@](O)(C[C@@H](O)C[C@@H](O)[C@H](O)CC[C@@H](O)C[C@@H](O)CC(=O)O[C@H]1C)C[C@H](O)[C@H]2C(=O)O [Amphoterine B, amphotericin B]
